Columns and labels:
[1] = solubility in water, room temperature (23±0.5° C.)
Procedure: After the suspensions were allowed to settle, about 0.020 mL of each supernatant was added to a UV cuvette containing about 2.98 mL of Millipore H2O, and the UV absorption of each solution was measured. The concentration, SAQ, of each compound was determined using Beer's Law and the previously measured molar absorptivities (ε, L mol^−1cm^−1) of each compound in water where A is the absorbance (no units), b is the path length of the cuvette (cm) and c is the concentration (mol L^−1) of each compound in the supernatant. Beer's Law: A=εbc c=A/εb

[2] = solubility in octanol, room temperature
Procedure: Lipid solubility (SLIPID): Each compound (50-100 mg) was stirred at rt in four test tubes containing 2 or 3 mL of isopropyl myristate (IPM) or octanol (OCT) overnight. The saturated suspensions were filtered and about 0.020 mL of each filtrate was diluted with 5 or 10 mL of acetonitrile (ACN). The UV absorbances of the diluted filtrates were measured and the concentrations of each compound in either IPM (SIPM) or OCT (SOCT) were determined using Beer's Law as above but using previously measured ε of each compound in ACN.
The solubilities in the lipid, SOCT or SIPM, could also then be calculated from KLIPID:AQ=SLIPID/SAQ.

[3] = Hydrolysis at pH 10.0 followed by iodine titration; type: physicochemical; details: pH 10.0, iodine titration with starch indicator
Procedure: If no free enediol is present, the excess iodine reacts with a starch indicator to give a blue color. During the titration, as iodine solution was added to the prodrug solution, a blue color formed initially but faded as the free enediol was released by hydrolysis of the prodrug and the iodine was reduced to iodide.

## CC(=O)OCOC1=C(OC(C)=O)C(=O)OC1C1COC(C)(C)O1 [2-AcC1-3-SMC1 ascorbic acid acetonide, 5,6-Isopropylidene-3-O-(acetyloxymethyl)-2-O-acetyl-L-ascorbic acid]
[1]
  log SAQ: 1.56
[2]
  log SOCT: 1.55

## CC(=O)OCOC1=C(OC(C)=O)C(=O)OC1C(O)CO (centres unmarked) [2-AcC1-3-SMC1 ascorbic acid]
[1]
  log SAQ: 2.05
[2]
  log SOCT: 1.66

## CCC(=O)OCOC1=C(OC(=O)CC)C(=O)OC1C1COC(C)(C)O1 (centres unmarked) [2-ethylcarbonyl-3-ethylcarbonyloxymethyl-5,6-isopropylidene ascorbic acid]
[3]
  theoretical amount of ascorbic acid acetonide formed from hydrolysis of the prodrug: 95.7%
